Data from US9096853B2, “Modified siRNA molecules incorporating 5-fluoro-2′-deoxyuridine residues to enhance cytotoxicity” (U.S. Department of Veterans Affairs, priority 2012, dated 2015).
Strand notation (5' to 3'): a small letter for the sugar, then the base; units joined by * are phosphorothioate-linked, units joined directly phosphodiester-linked; [ ] holds rarer units or linkages, { } end groups; capitals alone tell only the bases. [5FU] = 5-fluoro-2'-deoxyuridine (FdU); d = 2'-deoxy (DNA); r = 2'-OH (RNA)

Assays:
[1] = test system: thymidylate synthase (TS) protein; assay: Immunoblot analysis of TS protein (free and ITC-bound), Odyssey quantitation; type: cell-based, human; conditions: RKO cells, 5 nM for 6 hr
[2] = test system: human colon cancer RKO cell line; assay: Cell proliferation assay (WST-1) in RKO cells; type: cell-based; conditions: for IC50: 6 hr exposure then 96 hr growth, mean ± S.D., at least 3 experiments; for effect on cell proliferation / cytotoxicity (in words): WST-1
Experimental: RKO cells were plated in 96-well plates at a density of 800 cells/well. On the following day, cells were incubated with ssiRNA/LF2000 complexes for 6 hr, after which time, the growth medium was replaced, and cells were grown for an additional 96 hr. Similarly, RKO cells were treated with FdU (#F0503, Sigma) for 6 hr followed by medium replacement and then allowed to grow for an additional 96 hr. Cell proliferation/viability was quantified by the WST-1 assay (Roche; Indianapolis, Ind.).

[3] = test system: human colon cancer RKO cell line; assay: Clonogenic assay in RKO cells; type: cell-based; conditions: for IC50: 6 hr exposure, colonies counted after 8 days, mean ± S.D., at least 3 experiments
Experimental: RKO cells were plated in 6-well plates at a density of 600 cells/well. On the following day, cells were transfected with ssiRNA/LF2000 complexes for 6 hr after which time, the growth medium was replaced. Similarly, FdU was added to wells for 6 hr followed by medium replacement. After 8 days, cell colonies were fixed with Trypan blue solution (75% methanol/25% acetic acid/0.25% trypan blue), washed, and air-dried before counting colonies >50 cells.

[4] = test system: thymidylate synthase (TS) protein; assay: Immunoblot analysis of TS protein (free and ITC-bound), Odyssey quantitation; type: cell-based, human; conditions: RKO cells, ssiRNA 1 nM, 48 hr; for Free TS (%) / ITC-Bound TS (%): normalized to free TS protein in mock-transfected cells (LF2000) set to 100%, mean ± S.D., 6 experiments
Experimental: FIGS. 1A-B illustrate the effect of FdU incorporation in ssiRNA on TS protein expression. RKO cells were transfected with TS6 ssiRNAs (1 nM) containing various 3′-overhangs. After 6 hr, the medium was replaced. After an additional 48 hr, cells were harvested and processed for immunoblot and qPCR analysis as described in the Materials and Methods section. (A) Representative blot from 4 experiments. (B) All qPCR values represent the mean±S.D. from at least 3 separate experiments performed in triplicate. The normalized amount of TS mRNA from mock-transfected cells (LF2000) was set to 1.0 and all other values compared against that value. ITC, inhibitory ternary complex;
Cells were plated at a density of 1.5×10^5 cells/well. On the following day, ssiRNAs were complexed with Lipofectamine 2000 (LF2000, Invitrogen) in serum-free RPMI-1640 medium and added to the plated cells. After 48 hr, cells were rinsed with PBS and scraped in cell lysis buffer (10 mM Tris pH7.4, 150 mM NaCl, 1 mM EDTA, 1% IGEPAL, 0.5% sodium deoxycholate, and 0.1% SDS) containing freshly added Protease Inhibitor Cocktail (Sigma; St. Louis, Mo.), 1 mM phenylmethylsulfonyl fluoride, and phosphatase inhibitors (Sigma). Lysates were sonicated and then centrifuged at 14,000 rpm for 30 min at 4° C. to remove debris. Cell lysates were stored at −80° C. for future use. For mRNA analysis, total RNA was extracted using Trizol (Invitrogen) and stored at −80° C. for future use.
Protein concentrations of cell lysates were determined using the DC Protein Assay (Bio-Rad; Hercules, Calif.). Equal amounts of protein (30 μg) from each cell lysate were resolved on SDS-PAGE using the method of Laemmli (Reference 19) and transferred onto 0.45 μm nitrocellulose membranes (Bio-Rad). Membranes were blocked and incubated overnight with primary antibodies at 4° C. The following antibodies were used in the experiments: anti-TS (Clone 4H4B1; Invitrogen), anti-TS (#5449; Cell Signaling; San Francisco, Calif.), anti-p21 Waf1/Cip1 (#2947; Cell Signaling), anti-p53 (#sc-126; Santa Cruz Biotechnology; Santa Cruz, Calif.), anti-PARP (#9542; Cell Signaling), anti-Fas (#4233; Cell Signaling), anti-phospho-histone H2A.X (Ser139) (#2577; Cell Signaling), anti-histone H2A.X (#7631; Cell Signaling), anti-phospho-ATM (pS1981; EPITOMICS Inc.; Burlingame, Calif.), anti-ATM (#A1106; Sigma), and anti-α-tubulin (EMD Biosciences; San Diego, Calif.). After multiple TBST washes (1×TBS, 0.1% Tween-20), membranes were incubated with corresponding horseradish peroxidase-conjugated secondary antibodies (Bio-Rad) for 1 hr at room temperature. Proteins were detected by the enhanced chemiluminescence method (SuperSignal West Pico substrate; Pierce; Rockford, Ill.). Quantitation of signal intensities was performed by densitometry on a Xerox scanner using NIH IMAGEJ software.
Immunoblots were prepared as described above. After incubation with anti-TS polyclonal antibody, membranes were blocked with the Odyssey blocking buffer and incubated with IRDye 800CW goat anti-rabbit antibody (LI-COR Biosciences; Lincoln, Nebr., USA) according to the manufacturer instructions. The fluorescent signal was detected and quantified using the Odyssey infrared imaging system (LI-COR).

[5] = test system: TS6 siRNA target sequence (TS mRNA nt 1058-1077) targeted by the antisense strand; assay: Luciferase assay, vector with TS6 target site for the antisense strand; type: cell-based, human; conditions: RKO cells, ssiRNA 0.1 nM, 24 hr
Experimental: (§1) FIG. 3 illustrates the effect of 3′-end modification on ssiRNA strand selection. RKO cells were transfected with luciferase vectors (including the TS6 target site for either the antisense (open bars) or sense strand (hatched bars)) in combination with ssiRNAs containing different 3′-end overhangs. After 24 hr, cells were harvested and luciferase activity was determined as described in the Materials and Methods section. Firefly/renilla luciferase activity from vector-alone transfection was normalized to 100%. All values represent the mean±S.D. from at least 4 separate experiments performed in duplicate;
(§2) FIGS. 4A-C illustrate the effect of 3′-end dU incorporation on ssiRNA strand selection. RKO cells were transfected with various TS6 ssiRNAs (1 nM) for 6 hr. After an additional 48 hr, cells were harvested for immunoblot (A) and qPCR (B) analysis. (C) Luciferase vectors (containing the siRNA target site for either the sense or antisense strand) were transfected into RKO cells in combination with different ssiRNAs. After 24 hr, cells were harvested and luciferase activity was determined as described in the Materials and Methods section. Luciferase activity from vector-alone transfection was normalized to 100%. All values represent the mean±S.D. from at least 4 separate experiments performed in duplicate;
(§3) A DNA oligonucleotide corresponding to the TS6 siRNA target sequence (TS mRNA nt 1058-1077: 5′-[…]-3′- SEQ ID NO: 23) was annealed to its complimentary antisense sequence and ligated into the pGL3-Promoter plasmid (Promega; Madison, WI) at restriction sites Hind III and Nco I. The luciferase mRNA expressed from this plasmid was targeted by the antisense strand of TS6 siRNA. A second plasmid was constructed with the TS mRNA sequence inserted in the opposite orientation so that it could be targeted by the sense or passenger strand of TS6 siRNA. […] After 24 hr, cells were washed with PBS, lysed in 1×PLG buffer, and firefly and renilla luciferase levels were determined by the Dual-Luciferase™ Reporter Assay system (Promega). […]

[6] = test system: TS mRNA sequence in opposite orientation targeted by the sense (passenger) strand; assay: Luciferase assay, vector with TS6 target site for the sense strand; type: cell-based, human; conditions: RKO cells, ssiRNA 0.1 nM, 24 hr
Experimental: as §1, §2, §3

## O=c1[nH]cc(F)c(=O)[nH]1 [5-FU, 5-fluorouracil, reference compound]
[1]
  formation of the ITC after incubation with 5-FU: did not result in formation of the ITC

## O=c1[nH]c(=O)n([C@H]2C[C@H](O)[C@@H](CO)O2)cc1F [FdU (TS inhibitor), 5-fluoro-2′-deoxyuridine]
[2]; Homo sapiens
  IC50: 6.93 ± 2.08 nM
[3]; Homo sapiens
  IC50: 7.42 ± 1.33 nM

## Mis-dU/dA: unmodified mismatched control ssiRNA; SEQ ID NO: 19 and 20 (chain 1 GGAUACUGCCAAUCUCUAGGUUUUU; chain 2 CCUAGAGAUUGGCAGUAUCCAAAAA; chain 1: sugars from the 5' end r20 d5, backbone and T or U not given here; chain 2: sugars from the 5' end r20 d5, backbone not given here) [reference compound]
[4]
  Free TS (%): 90.1 ± 14.0%
[2]
  effect on cell proliferation / cytotoxicity (in words): no effect
[3]
  effect on clonogenic growth (in words): no effect

## TS6-1xF-dU/dA: ssiRNA with a single FdU residue at the 4th position in the sense strand; SEQ ID NO: 5 and 6 (chain 1 GGAUAUUGUCAGUCUUUAGGUUUUU; chain 2 CCUAAAGACUGACAAUAUCCAAAAA; FdU at position 4 of sense strand, chemistry not fully specified)
[4]
  effect on TS protein expression (in words): significantly inhibited
  Free TS (%): 27.3 ± 8.3%
  ITC-Bound TS (%): 4.4 ± 2.6%
[2]
  enhancement of IC50 versus TS6-dU/dA, cell growth (WST-1) assay: ~30 fold
  IC50: 2.85 ± 0.83 nM
[3]
  fold lower IC50 (greater potency) versus TS6-dU/dA, clonogenic assay: 5 fold
  IC50: 0.34 ± 0.08 nM

## TS6-2xF-dU/dA: ssiRNA with FdU on positions 16 and 18 of the antisense strand; SEQ ID NO: 17 and 18 (chain 1 GGAUAUUGUCAGUCUUUAGGUUUUU; chain 2 CCUAAAGACUGACAAUAUCCAAAAA; chain 1: sugars from the 5' end r20 d5, backbone not given here; chain 2: sugars from the 5' end rrrrrrrrrrrrrrrdrdrrddddd, [5FU] at 16, 18, backbone not given here)
[4]
  Free TS (%): 54.1 ± 14.1%
  ITC-Bound TS (%): 15.4 ± 9.5%

## TS6-3xF-dU/dA: ssiRNA with FdU replacing U at positions 10, 16 and 18 in the antisense strand; SEQ ID NO: 15 and 16 (chain 1 GGAUAUUGUCAGUCUUUAGGUUUUU; chain 2 CCUAAAGACUGACAAUAUCCAAAAA; FdU at antisense positions 10, 16, 18, chemistry not fully specified)
[4]
  Free TS (%): 73.6 ± 14.7%
  ITC-Bound TS (%): 26.2 ± 10.7%

## TS6-FdU/FdU: TS-targeted ssiRNA, both 3′-ends modified with FdU; SEQ ID NO: 13 and 14 (chain 1 rGrGrArUrArUrUrGrUrCrArGrUrCrUrUrUrArGrGd[5FU]d[5FU]d[5FU]d[5FU]d[5FU]; chain 2 rCrCrUrArArArGrArCrUrGrArCrArArUrArUrCrCd[5FU]d[5FU]d[5FU]d[5FU]d[5FU])
[2]
  IC50: 0.77 ± 0.12 nM
[3]
  IC50: 0.43 ± 0.16 nM
[3]; p=0.01
  reduced efficacy as compared to TS6-FdU/dA, clonogenic assay: 2 fold

## TS6-UU: standard TS6 siRNA with two uridine overhangs, TS-targeted; SEQ ID NO: 1 (sense) and 2 (antisense) (sense GGAUAUUGUCAGUCUUUAGGUU; antisense CCUAAAGACUGACAAUAUCCUU; RNA, backbone not given here)
[5]
  antisense strand targeting, luciferase (in words): suppressed
[6]
  sense strand targeting, luciferase (in words): suppressed

## TS6-dA/FdU: TS-targeted ssiRNA with FdU modification of the 3′-end of antisense strand; SEQ ID NO: 11 and 12 (chain 1 GGAUAUUGUCAGUCUUUAGGAAAAA; chain 2 CCUAAAGACUGACAAUAUCCUUUUU; chain 1: sugars from the 5' end r20 d5, backbone not given here; chain 2: sugars from the 5' end r20 d5, [5FU] at 21, 22, 23, 24, 25, backbone not given here)
[4]
  effect on TS protein expression (in words): reduced the ability
  Free TS (%): 48.0 ± 18.6%
  ITC-Bound TS (%): 30.6 ± 15.6%
[2]
  IC50: 1.27 ± 0.32 nM
  effect on cell proliferation / cytotoxicity (in words): significantly less effective
[3]
  effect on clonogenic growth (in words): significantly less effective
  IC50: 0.4 ± 0.2 nM
[5]
  less targeting by the antisense strand: 2 fold
[6]
  sense strand targeting, luciferase (in words): enhanced
